Experimental data from ChEMBL document CHEMBL3045035, “Synthesis and insect antifeedant activity of stilbene derivatives against Brontispa longissima Larvae” (2013).

What was measured:
[1] = test system: Brontispa longissima; assay: Antifeedant activity against third-instar larval stage of Brontispa longissima in […] assessed as decrease in leaf surface consumption treated for 30 secs prior to larval infestation measured after 48 hr by leaf-dipping method; format: functional
[2] = test system: Brontispa longissima; assay: Ratio of compound AFC50 to combrestatin A-4 AFC50 for third-instar larval stage of Brontispa longissima; format: functional

In the case of `COc1cc(/C=C\c2ccc([N+](=O)[O-])cc2)cc(OC)c1OC`, the AFC50 [1] is reported as 0.982 mg/mL, the pAFC50 [1] is reported as 0.01 and the Ratio [2] is reported as 3.

For `COc1cc(/C=C\c2ccc(Cl)cc2)cc(OC)c1OC`, the AFC50 [1] was 1.634 mg/mL and the pAFC50 [1] was -0.21.

`COc1cc(/C=C\c2ccc(OC(C)=O)c(OC(C)=O)c2)cc(OC)c1OC` was tested, and the AFC50 [1] was 1.918 mg/mL and the pAFC50 [1] was -0.28.

`COc1cc(/C=C\c2ccc(OC(C)=O)cc2)cc(OC)c1OC` was tested, and the AFC50 [1] was 0.843 mg/mL, the pAFC50 [1] was 0.07 and the Ratio [2] was 3.

`COc1ccc(/C=C(/C(=O)O)c2cc(OC)c(OC)c(OC)c2)cc1O` was tested, and the AFC50 [1] was 1.461 mg/mL, the pAFC50 [1] was -0.17 and the Ratio [2] was 7.

For `COc1cc(/C=C\c2ccccc2)cc(OC)c1OC`, the AFC50 [1] was 0.529 mg/mL and the pAFC50 [1] was 0.28.

With `CC(=O)Oc1ccc(/C=C\c2ccc(OC(C)=O)c(OC(C)=O)c2)cc1` the AFC50 [1] was 0.64 mg/mL and the pAFC50 [1] was 0.19.

`COc1cc(/C=C\c2ccc3c(c2)OCO3)cc(OC)c1OC` showed an AFC50 [1] of 0.731 mg/mL and a pAFC50 [1] of 0.14.

Molecule `COc1cc(/C=C\c2cc(Cl)cc(Cl)c2)cc(OC)c1OC` has an AFC50 [1] of 2.234 mg/mL, a pAFC50 [1] of -0.35 and a Ratio [2] of 5.

In the case of `COc1ccc(/C=C(/C#N)c2cc(OC)c(OC)c(OC)c2)cc1O`, the AFC50 [1] is reported as 0.431 mg/mL and the pAFC50 [1] is reported as 0.36.

In the case of `COc1cc(/C=C\c2ccc([N+](=O)[O-])cc2[N+](=O)[O-])cc(OC)c1OC`, the AFC50 [1] is reported as 1.05 mg/mL, the pAFC50 [1] is reported as -0.02 and the Ratio [2] is reported as 5.

Work on `O=[N+]([O-])c1ccc(/C=C\c2ccc(O)cc2)cc1` yielded an AFC50 [1] of 1.185 mg/mL and a pAFC50 [1] of -0.07.

Molecule `Oc1ccc(/C=C\c2ccc3c(c2)OCO3)cc1` has an AFC50 [1] of 1.005 mg/mL and a pAFC50 [1] of 0.

Molecule `COc1ccc(/C=C\c2cc(OC)c(OC)c(OC)c2)cc1` has an AFC50 [1] of 0.327 mg/mL and a pAFC50 [1] of 0.48.

In the case of `COc1ccc(/C=C\c2ccc(O)cc2)cc1[N+](=O)[O-]`, the AFC50 [1] is reported as 1.301 mg/mL and the pAFC50 [1] is reported as -0.11.

`COc1cc(/C=C\c2ccc(O)cc2)cc(OC)c1OC` showed an AFC50 [1] of 1.261 mg/mL and a pAFC50 [1] of -0.1.

With `Oc1ccc(/C=C/c2cc(O)cc(O)c2)cc1` [RESVERATROL] the AFC50 [1] was 0.816 mg/mL.

Work on `COc1ccc(/C=C/c2cc(OC)c(OC)c(OC)c2)cc1O` [E-COMBRETASTATIN A-4] yielded an AFC50 [1] of 0.357 mg/mL and a pAFC50 [1] of 0.45.

`COc1ccc(/C=C\c2ccc(OC(C)=O)cc2)cc1OC(C)=O` gave an AFC50 [1] of 2.501 mg/mL and a pAFC50 [1] of -0.4.

In the case of `COC(=O)/C(=C/c1ccc(OC)c(O)c1)c1cc(OC)c(OC)c(OC)c1`, the AFC50 [1] is reported as 1.453 mg/mL, the pAFC50 [1] is reported as -0.16 and the Ratio [2] is reported as 7.

With `COc1ccc(/C=C\c2cc(OC)c(OC)c(OC)c2)cc1O` [COMBRETASTATIN A4] the AFC50 [1] was 0.218 mg/mL and the pAFC50 [1] was 0.66.

`COc1ccc(/C=C(/C(N)=O)c2cc(OC)c(OC)c(OC)c2)cc1O` gave an AFC50 [1] of 0.736 mg/mL and a pAFC50 [1] of 0.13.

`COc1ccc(/C=C\c2ccc(OC(C)=O)cc2)cc1` gave an AFC50 [1] of 0.732 mg/mL and a pAFC50 [1] of 0.14.

`Oc1ccc(/C=C\c2ccc(Cl)cc2)cc1` was tested, and the AFC50 [1] was 0.412 mg/mL and the pAFC50 [1] was 0.39.

`Oc1ccc(/C=C\c2ccccc2)cc1` showed an AFC50 [1] of 1.161 mg/mL and a pAFC50 [1] of -0.06.

Molecule `COc1ccc(/C=C(/CO)c2cc(OC)c(OC)c(OC)c2)cc1O` has an AFC50 [1] of 0.226 mg/mL and a pAFC50 [1] of 0.65.
